Measured values as given in ChEMBL document CHEMBL6096719, “Kidney Targeting Smart Antibiotic Discovery: Multimechanism Pleuromutilins for Pyelonephritis Therapy” (J Med Chem, 2025).
In brackets after ≈: the same amount, converted by molar mass.

Tests used:
[1] = Aqueous solubility of the compound incubated for 12 hrs by UV-Vis spectrophotometry; type: physicochemical; conditions: buffer
[2] = system: Staphylococcus aureus; assay: Antibacterial activity against methicillin-resistant Staphylococcus aureus 171 assessed as inhibition of bacterial growth incubated for 24 hrs by broth microdilution method; type: functional
[3] = system: Enterococcus; assay: Antibacterial activity against vancomycin-resistant Enterococcus 80 assessed as inhibition of bacterial growth incubated for 24 hrs by broth microdilution method; type: functional
[4] = system: Staphylococcus aureus; assay: Antibacterial activity against methicillin-resistant Staphylococcus aureus 596 assessed as inhibition of bacterial growth incubated for 24 hrs by broth microdilution method; type: functional
[5] = system: Acinetobacter baumannii; assay: Antibacterial activity against carbapenem-resistant Acinetobacter baumannii 882 assessed as inhibition of bacterial growth incubated for 24 hrs by broth microdilution method; type: functional
[6] = system: Staphylococcus aureus; assay: Antibacterial activity against methicillin-resistant Staphylococcus aureus 575 assessed as inhibition of bacterial growth incubated for 24 hrs by broth microdilution method; type: functional
[7] = Cytotoxicity against human HEK293 cells assessed as reduction in cell viability incubated for 24 hrs by CCK8 assay; type: toxicity, cell-based
[8] = system: Klebsiella pneumoniae; assay: Antibacterial activity against multidrug-resistant Klebsiella pneumoniae 893 assessed as inhibition of bacterial growth incubated for 24 hrs by broth microdilution method; type: functional
[9] = Cytotoxicity against human A549 cells assessed as reduction in cell viability incubated for 24 hrs by CCK8 assay; type: toxicity, cell-based
[10] = system: Pseudomonas aeruginosa; assay: Antibacterial activity against multidrug-resistant Pseudomonas aeruginosa 126 assessed as inhibition of bacterial growth incubated for 24 hrs by broth microdilution method; type: functional
[11] = system: Staphylococcus aureus; assay: Antibacterial activity against methicillin-resistant Staphylococcus aureus 222 assessed as inhibition of bacterial growth incubated for 24 hrs by broth microdilution method; type: functional
[12] = Cytotoxicity against human HepG2 cells assessed as reduction in cell viability incubated for 24 hrs by CCK8 assay; type: toxicity, cell-based
[13] = system: Staphylococcus aureus; assay: Antibacterial activity against methicillin-resistant Staphylococcus aureus 206 assessed as inhibition of bacterial growth incubated for 24 hrs by broth microdilution method; type: functional

solubility at 12 h [1]	SMILES	further results
91.8 µg/mL	C=C[C@]1(C)C[C@@H](OC(=O)CSc2nc3cc[n+](Cc4cc(F)ccc4C#N)cc3[nH]2)[C@]2(C)[C@H](C)CC[C@]3(CCC(=O)[C@H]32)[C@@H](C)[C@@H]1O.[Br-]	
539 µg/mL	C=C[C@]1(C)C[C@@H](OC(=O)CSc2nc3cc[n+](Cc4cc(F)c(F)cc4F)cc3[nH]2)[C@]2(C)[C@H](C)CC[C@]3(CCC(=O)[C@H]32)[C@@H](C)[C@@H]1O.[Br-]	
414 µg/mL	C=C[C@]1(C)C[C@@H](OC(=O)CSc2nc3cc[n+](Cc4cc(C)cc(C)c4)cc3[nH]2)[C@]2(C)[C@H](C)CC[C@]3(CCC(=O)[C@H]32)[C@@H](C)[C@@H]1O.[Br-]	
150 µg/mL	C=C[C@]1(C)C[C@@H](OC(=O)CSc2nc3cc[n+](Cc4ccc(OC)cc4)cc3[nH]2)[C@]2(C)[C@H](C)CC[C@]3(CCC(=O)[C@H]32)[C@@H](C)[C@@H]1O.[Br-]	
159 µg/mL	C=C[C@]1(C)C[C@@H](OC(=O)CSc2nc3cc[n+](Cc4ccc(F)cc4)cc3[nH]2)[C@]2(C)[C@H](C)CC[C@]3(CCC(=O)[C@H]32)[C@@H](C)[C@@H]1O.[Br-]	
94 µg/mL	C=C[C@]1(C)C[C@@H](OC(=O)CSc2nc3cc[n+](Cc4cc(OC)cc(OC)c4)cc3s2)[C@]2(C)[C@H](C)CC[C@]3(CCC(=O)[C@H]32)[C@@H](C)[C@@H]1O.[Br-]	
367 µg/mL	C=C[C@]1(C)C[C@@H](OC(=O)CSc2nc3cc[n+](Cc4ccc(-c5ccccc5)cc4)cc3[nH]2)[C@]2(C)[C@H](C)CC[C@]3(CCC(=O)[C@H]32)[C@@H](C)[C@@H]1O.[Br-]	
486 µg/mL	C=C[C@]1(C)C[C@@H](OC(=O)CSc2nc3cc[n+](Cc4ccc(C(C)(C)C)cc4)cc3[nH]2)[C@]2(C)[C@H](C)CC[C@]3(CCC(=O)[C@H]32)[C@@H](C)[C@@H]1O.[Br-]	
391 µg/mL	C=C[C@]1(C)C[C@@H](OC(=O)CSc2nc3cc[n+](Cc4ccc(-c5ccccc5)cc4)cc3s2)[C@]2(C)[C@H](C)CC[C@]3(CCC(=O)[C@H]32)[C@@H](C)[C@@H]1O.[Br-]	
	C=C[C@]1(C)C[C@@H](OC(=O)CS[C@@H]2C[C@H]3CC[C@@H](C2)N3C)[C@]2(C)[C@H](C)CC[C@]3(CCC(=O)[C@H]32)[C@@H](C)[C@@H]1O [RETAPAMULIN]	MIC [2]: 128 µg/mL (≈ 247 µM); MIC [3]: > 128 µg/mL; MIC [4]: 32 µg/mL (≈ 61.8 µM); MIC [5]: 64 µg/mL (≈ 124 µM); MIC [6]: 32 µg/mL (≈ 61.8 µM); CC50 at 24 h [7]: 57.5 µM; MIC [8]: 128 µg/mL (≈ 247 µM); CC50 at 24 h [9]: 71.5 µM; MIC [10]: 64 µg/mL (≈ 124 µM); MIC [11]: 128 µg/mL (≈ 247 µM); CC50 at 24 h [12]: 61.1 µM; MIC [13]: 64 µg/mL (≈ 124 µM)
648 µg/mL	Br.C=C[C@]1(C)C[C@@H](OC(=O)CSc2nc3cc[n+](Cc4ccc([N+](=O)[O-])cc4)cc3s2)[C@]2(C)[C@H](C)CC[C@]3(CCC(=O)[C@H]32)[C@@H](C)[C@@H]1O	
128 µg/mL (≈ 259 µM)	C=C[C@]1(C)C[C@@H](OC(=O)CSCCN(CC)CC)[C@]2(C)[C@H](C)CC[C@]3(CCC(=O)[C@H]32)[C@@H](C)[C@@H]1O [TIAMULIN]	
344 µg/mL	C=C[C@]1(C)C[C@@H](OC(=O)CSc2nc3cc[n+](Cc4ccc(Br)cc4)cc3s2)[C@]2(C)[C@H](C)CC[C@]3(CCC(=O)[C@H]32)[C@@H](C)[C@@H]1O.[Br-]	
453 µg/mL	C=C[C@]1(C)C[C@@H](OC(=O)CSc2nc3cc[n+](Cc4ccc(C(C)(C)C)cc4)cc3s2)[C@]2(C)[C@H](C)CC[C@]3(CCC(=O)[C@H]32)[C@@H](C)[C@@H]1O.[Br-]	
449 µg/mL	C=C[C@]1(C)C[C@@H](OC(=O)CSc2nc3cc[n+](Cc4ccc(Cl)cc4)cc3s2)[C@]2(C)[C@H](C)CC[C@]3(CCC(=O)[C@H]32)[C@@H](C)[C@@H]1O.[Br-]	
246 µg/mL	C=C[C@]1(C)C[C@@H](OC(=O)CSc2nc3cc[n+](Cc4ccc(C(F)(F)F)cc4)cc3s2)[C@]2(C)[C@H](C)CC[C@]3(CCC(=O)[C@H]32)[C@@H](C)[C@@H]1O.[Br-]	
392 µg/mL	C=C[C@]1(C)C[C@@H](OC(=O)CSc2nc3cc[n+](Cc4cc(C)cc(C)c4)cc3s2)[C@]2(C)[C@H](C)CC[C@]3(CCC(=O)[C@H]32)[C@@H](C)[C@@H]1O.[Br-]	
176 µg/mL	C=C[C@]1(C)C[C@@H](OC(=O)CSc2nc3cc[n+](Cc4cc(OC)cc(OC)c4)cc3[nH]2)[C@]2(C)[C@H](C)CC[C@]3(CCC(=O)[C@H]32)[C@@H](C)[C@@H]1O.[Br-]	
432 µg/mL	C=C[C@]1(C)C[C@@H](OC(=O)CSc2nc3cc[n+](Cc4ccc(Br)cc4)cc3[nH]2)[C@]2(C)[C@H](C)CC[C@]3(CCC(=O)[C@H]32)[C@@H](C)[C@@H]1O.[Br-]	
177 µg/mL	C=C[C@]1(C)C[C@@H](OC(=O)CSc2nc3cc[n+](Cc4ccc(OC)cc4)cc3s2)[C@]2(C)[C@H](C)CC[C@]3(CCC(=O)[C@H]32)[C@@H](C)[C@@H]1O.[Br-]	
419 µg/mL	C=C[C@]1(C)C[C@@H](OC(=O)CSc2nc3cc[n+](Cc4ccc(Cl)cc4)cc3[nH]2)[C@]2(C)[C@H](C)CC[C@]3(CCC(=O)[C@H]32)[C@@H](C)[C@@H]1O.[Br-]	
691 µg/mL	Br.C=C[C@]1(C)C[C@@H](OC(=O)CSc2nc3cc[n+](Cc4ccc([N+](=O)[O-])cc4)cc3[nH]2)[C@]2(C)[C@H](C)CC[C@]3(CCC(=O)[C@H]32)[C@@H](C)[C@@H]1O	
168 µg/mL	C=C[C@]1(C)C[C@@H](OC(=O)CSc2nc3cc[n+](Cc4cc(F)ccc4C#N)cc3s2)[C@]2(C)[C@H](C)CC[C@]3(CCC(=O)[C@H]32)[C@@H](C)[C@@H]1O.[Br-]	
485 µg/mL	C=C[C@]1(C)C[C@@H](OC(=O)CSc2nc3cc[n+](Cc4cc(F)c(F)cc4F)cc3s2)[C@]2(C)[C@H](C)CC[C@]3(CCC(=O)[C@H]32)[C@@H](C)[C@@H]1O.[Br-]	
337 µg/mL	C=C[C@]1(C)C[C@@H](OC(=O)CSc2nc3cc[n+](Cc4ccc(C(F)(F)F)cc4)cc3[nH]2)[C@]2(C)[C@H](C)CC[C@]3(CCC(=O)[C@H]32)[C@@H](C)[C@@H]1O.[Br-]	
395 µg/mL	C=C[C@]1(C)C[C@@H](OC(=O)CSc2nc3cc[n+](Cc4ccc(F)cc4)cc3s2)[C@]2(C)[C@H](C)CC[C@]3(CCC(=O)[C@H]32)[C@@H](C)[C@@H]1O.[Br-]	

SMILES	solubility at 12 h [1]	further results
C=C[C@]1(C)C[C@@H](OC(=O)CSc2nc3cc[n+](Cc4ccc(C)cc4)cc3s2)[C@]2(C)[C@H](C)CC[C@]3(CCC(=O)[C@H]32)[C@@H](C)[C@@H]1O.[Br-]	568 µg/mL	MIC [2]: 8 µg/mL; MIC [3]: 8 µg/mL; MIC [4]: 8 µg/mL; MIC [5]: 4 µg/mL; MIC [6]: 4 µg/mL; CC50 at 24 h [7]: 82.1 µM; MIC [8]: 2 µg/mL; CC50 at 24 h [9]: > 100 µM; MIC [10]: 8 µg/mL; MIC [11]: 4 µg/mL; CC50 at 24 h [12]: 46.4 µM; MIC [13]: 2 µg/mL
